Consider 2 compounds from patent US20260240818A1, “METHODS FOR THE TREATMENT OF FOOD ALLERGY” (INSTITUT NATIONAL DE LA SANTÉ ET DE LA RECHERCHE MÉDICALE, priority 2023, published 2026).

Structures are written as SMILES. Entries after “also recorded” stand apart in the source; their conditions may differ.

The test system of one assay is peanut-sensitized mice. The assay can be described thus: Peanut allergy mouse model: clinical score and diarrhoea after oral peanut extract challenge. It counts as in vivo. The note with it: for clinical score / incidence of diarrhoea: FOS-enriched diet; for clinical score: average of days 1-3 of oral PE challenge; for incidence of diarrhoea: oral PE challenge.
The next assay has as its system peanut-specific IgE. The assay is described as follows: Peanut-specific IgE ELISA on serum from the peanut allergy model. The note with it: FOS-enriched diet, serum after last PE challenge. In kind it is in vivo, mouse. On the procedure:
On days 1, 7, and 21 mice were sensitized with 500 μg of peanut extract (PE) together with 2 mg of Imject alum (Thermo Fisher, France) by intraperitoneal (IP) injection (100 μl in PBS). Starting from day 35, for 7 days, mice were challenged with 30 mg of PE in NaHCO3 (0.1M) by oral gavage, and clinical score (Table 2) and occurrence of diarrhoea was registered for 1 hours after each gavage. After the last challenge, blood is collected for serum extraction. Non-allergic control animals were sham sensitized (2 mg alum but no peanut extract) but challenged like the other experimental groups. Peanut Extract (PE) was coated on ELISA plates at 5 μg/ml in 0.05 M sodium carbonate-bicarbonate buffer (Sigma-Aldrich, France) over-night at 4° C., plates were washed 3 times with PBS-0.05% Tween 20 (Sigma-Aldrich, France). […] Sample preparation: Mouse serum from blood collected 1 hour after the last oral peanut challenge was diluted 1/50 in ELISA assay buffer (1×) from the ELISA kit used. The colorimetric reaction was stopped by addition of H2SO4 (5M) and absorbance was recorded at 450 nm.

Where [1] appears, read: pyridoxamine 1 mg/ml in drinking water throughout.
[2] abbreviates: FPS-ZM1 0.5 or 1 mg/kg b.w. i.p. twice weekly.

Description for peanut-sensitized mice: All mice were bred and maintained on a peanut- and soy-free diet under specific pathogen-free conditions until the start of the experiment.
Pyridoxamine: pyridoxamine dihydrochloride (Sigma-Aldrich, France) is added to drinking water at 1 mg/ml throughout the experiment.
RAGE antagonist FPS-ZM1: twice weekly 100 μl IP injections of FPS-ZM1 in PBS (Sigma Aldrich, France) at 0 (control group), 0.5, or 1 mg/kg b.w. were performed throughout the experiment.
Clinical score (Table 2) was continually observed from 15 to 50 minutes after oral allergen challenge and noted for each mouse. For analysis purposes, the average clinical score of the first 3 days of challenge is calculated for each mouse.
Experimental groups were compared by One-Way ANOVA, selected groups were compared using Holm-Sidak's correction for multiple comparisons. For diarrhoea data, pairwise comparisons of survival curves were performed and analysed by Mantel-Cox log-rank test.

Consider `Cc1ncc(CO)c(CN)c1O` [pyridoxamine], for which, in the assay with peanut-sensitized mice (setting [1]), the “aggravating effects of the FOS-enriched diet on peanut allergic reactions” value is reported as “eliminates; also recorded: block”, the clinical score result is “reduced” and the incidence of diarrhoea entry was “reduced”. The “serum peanut-specific IgE levels” value in the assay with peanut-specific IgE (setting [1]) is “reduced”.
With `O=C(c1ccc(Cl)cc1)N(Cc1ccccc1)C1CCCCC1` [FPS-ZM1, 4-Chloro-N-cyclohexyl-N-(phenylmethyl)benzamide], in the assay on peanut-sensitized mice (setting [2]), the “FOS-induced aggravating effects in a mouse model of peanut allergy” value is on record as “eliminates; also recorded: limit”, the clinical score entry was “lowering” and the incidence of diarrhoea entry was “lowering”. In addition, the “allergen-specific IgE levels” value in the assay on peanut-specific IgE (setting [2]) was “lowering”.
